Results taken from patent US11208412B2 (DAEGU-GYEONGBUK MEDICAL INNOVATION FOUNDATION, priority 2017, dated 2021).

Tests used:
Experiment in all cases: Kinase selectivity, DiscoverX scanMAX Kinase assay panel (% control)
Assay type in all cases: binding
[1] = target: T1, kinases of the scanMAX Kinase assay panel (Homo sapiens, UniProt O00444); conditions: PLK4; 1 uM
T1 construct: purchased DiscoverX Co. (contract measurement) scanMAX Kinase assay panel
T1 sequence (O00444 1-970): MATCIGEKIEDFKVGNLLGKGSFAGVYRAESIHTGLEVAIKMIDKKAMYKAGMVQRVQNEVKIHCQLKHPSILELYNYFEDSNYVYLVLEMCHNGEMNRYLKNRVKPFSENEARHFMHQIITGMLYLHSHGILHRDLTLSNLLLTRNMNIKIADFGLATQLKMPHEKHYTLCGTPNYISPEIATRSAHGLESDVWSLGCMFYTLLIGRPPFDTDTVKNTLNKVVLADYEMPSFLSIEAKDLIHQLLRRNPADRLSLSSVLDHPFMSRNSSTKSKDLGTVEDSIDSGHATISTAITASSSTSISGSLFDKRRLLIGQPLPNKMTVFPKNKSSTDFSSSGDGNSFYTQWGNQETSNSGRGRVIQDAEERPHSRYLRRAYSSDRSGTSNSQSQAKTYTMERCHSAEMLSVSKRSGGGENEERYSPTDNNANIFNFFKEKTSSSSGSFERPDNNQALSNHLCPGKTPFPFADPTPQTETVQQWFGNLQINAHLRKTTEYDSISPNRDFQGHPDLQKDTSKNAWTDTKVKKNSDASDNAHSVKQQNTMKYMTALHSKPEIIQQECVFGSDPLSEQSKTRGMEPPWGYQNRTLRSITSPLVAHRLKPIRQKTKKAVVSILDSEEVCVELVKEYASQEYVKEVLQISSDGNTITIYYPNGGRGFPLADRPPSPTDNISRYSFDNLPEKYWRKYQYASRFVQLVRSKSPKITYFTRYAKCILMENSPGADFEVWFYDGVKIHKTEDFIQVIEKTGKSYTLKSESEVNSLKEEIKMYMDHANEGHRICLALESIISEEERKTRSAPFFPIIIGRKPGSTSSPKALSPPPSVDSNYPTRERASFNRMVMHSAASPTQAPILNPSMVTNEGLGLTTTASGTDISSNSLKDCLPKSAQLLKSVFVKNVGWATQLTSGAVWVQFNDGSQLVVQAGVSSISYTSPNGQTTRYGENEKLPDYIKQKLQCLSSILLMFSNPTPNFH
Method in brief: (§1)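 A 1 uM DMSO solution of compound was applied across the panel kinases, and results were expressed as % control relative to DMSO (100%) and a positive control (0%).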

[2] = target: T2, kinases of the scanMAX Kinase assay panel (Homo sapiens, UniProt P42336, E545K); conditions: PIK3CA(E545K); 1 uM
T2 construct: purchased DiscoverX Co. (contract measurement) scanMAX Kinase assay panel
T2 sequence (P42336 whole entry E545K): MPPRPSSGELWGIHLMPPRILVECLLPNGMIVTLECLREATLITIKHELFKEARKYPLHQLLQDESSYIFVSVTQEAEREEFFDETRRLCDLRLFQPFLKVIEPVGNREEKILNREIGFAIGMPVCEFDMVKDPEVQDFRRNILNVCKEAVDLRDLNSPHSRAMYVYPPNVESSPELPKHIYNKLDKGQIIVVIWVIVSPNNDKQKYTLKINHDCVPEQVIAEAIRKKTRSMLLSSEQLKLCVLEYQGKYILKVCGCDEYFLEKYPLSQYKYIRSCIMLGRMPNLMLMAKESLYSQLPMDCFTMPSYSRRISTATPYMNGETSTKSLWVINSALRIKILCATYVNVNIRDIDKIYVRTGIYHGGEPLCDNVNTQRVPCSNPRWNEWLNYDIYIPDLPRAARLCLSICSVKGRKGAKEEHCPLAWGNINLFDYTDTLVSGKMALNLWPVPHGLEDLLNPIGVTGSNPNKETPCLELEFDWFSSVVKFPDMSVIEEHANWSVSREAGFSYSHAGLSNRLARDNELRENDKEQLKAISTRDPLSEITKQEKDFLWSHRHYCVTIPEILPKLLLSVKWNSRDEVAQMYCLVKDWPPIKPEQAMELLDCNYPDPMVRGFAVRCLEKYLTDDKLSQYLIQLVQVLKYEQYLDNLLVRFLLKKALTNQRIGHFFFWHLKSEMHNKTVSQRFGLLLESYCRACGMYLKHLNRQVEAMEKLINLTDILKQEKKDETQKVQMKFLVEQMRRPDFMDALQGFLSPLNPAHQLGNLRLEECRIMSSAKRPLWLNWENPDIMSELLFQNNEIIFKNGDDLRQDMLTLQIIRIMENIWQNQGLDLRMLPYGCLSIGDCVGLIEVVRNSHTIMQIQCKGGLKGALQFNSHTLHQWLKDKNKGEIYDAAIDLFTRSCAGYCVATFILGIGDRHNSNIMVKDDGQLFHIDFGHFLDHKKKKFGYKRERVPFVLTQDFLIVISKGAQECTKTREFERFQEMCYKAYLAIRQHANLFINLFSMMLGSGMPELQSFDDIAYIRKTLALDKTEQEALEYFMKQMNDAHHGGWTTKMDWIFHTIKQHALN
Method in brief: as §1

[3] = target: T3, kinases of the scanMAX Kinase assay panel (Homo sapiens, UniProt P48730); conditions: CSNK1D; 1 uM
T3 construct: purchased DiscoverX Co. (contract measurement) scanMAX Kinase assay panel
T3 sequence (P48730 whole entry): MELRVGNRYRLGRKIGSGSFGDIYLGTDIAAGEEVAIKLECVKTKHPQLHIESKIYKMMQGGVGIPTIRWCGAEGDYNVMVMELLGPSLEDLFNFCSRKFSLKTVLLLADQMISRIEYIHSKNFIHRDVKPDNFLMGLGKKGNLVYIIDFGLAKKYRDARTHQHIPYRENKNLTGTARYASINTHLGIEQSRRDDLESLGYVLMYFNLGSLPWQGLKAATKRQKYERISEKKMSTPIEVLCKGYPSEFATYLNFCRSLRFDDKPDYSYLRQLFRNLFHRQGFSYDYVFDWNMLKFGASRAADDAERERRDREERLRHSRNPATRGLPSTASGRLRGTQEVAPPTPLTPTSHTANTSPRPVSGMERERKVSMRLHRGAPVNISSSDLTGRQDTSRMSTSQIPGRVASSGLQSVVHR
Method in brief: as §1

[4] = target: T4, kinases of the scanMAX Kinase assay panel (Homo sapiens, UniProt P53671); conditions: LIMK2; 1 uM
T4 construct: purchased DiscoverX Co. (contract measurement) scanMAX Kinase assay panel
T4 sequence (P53671 whole entry): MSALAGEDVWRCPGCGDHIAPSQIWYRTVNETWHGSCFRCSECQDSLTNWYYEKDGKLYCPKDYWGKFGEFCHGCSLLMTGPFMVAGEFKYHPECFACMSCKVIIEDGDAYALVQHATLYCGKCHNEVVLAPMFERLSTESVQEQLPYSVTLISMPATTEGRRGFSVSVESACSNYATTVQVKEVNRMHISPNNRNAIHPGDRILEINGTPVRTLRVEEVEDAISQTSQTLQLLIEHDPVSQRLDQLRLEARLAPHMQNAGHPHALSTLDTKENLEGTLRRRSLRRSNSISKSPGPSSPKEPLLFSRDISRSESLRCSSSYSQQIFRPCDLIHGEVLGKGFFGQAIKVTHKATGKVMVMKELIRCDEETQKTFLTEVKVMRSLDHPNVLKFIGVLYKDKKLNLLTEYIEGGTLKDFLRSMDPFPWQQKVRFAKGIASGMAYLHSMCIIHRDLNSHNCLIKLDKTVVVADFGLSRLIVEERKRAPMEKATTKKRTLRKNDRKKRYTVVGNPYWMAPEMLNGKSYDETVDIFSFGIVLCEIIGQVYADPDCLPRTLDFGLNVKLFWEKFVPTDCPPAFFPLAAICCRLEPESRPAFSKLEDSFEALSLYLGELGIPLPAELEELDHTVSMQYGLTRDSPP
Method in brief: as §1

[5] = target: T5, kinases of the scanMAX Kinase assay panel (Homo sapiens, UniProt Q6XUX3); conditions: kinase RIPK5; 1 uM in DMSO
T5 construct: purchased DiscoverX Co. (contract measurement) scanMAX Kinase assay panel
T5 sequence (Q6XUX3 1-929): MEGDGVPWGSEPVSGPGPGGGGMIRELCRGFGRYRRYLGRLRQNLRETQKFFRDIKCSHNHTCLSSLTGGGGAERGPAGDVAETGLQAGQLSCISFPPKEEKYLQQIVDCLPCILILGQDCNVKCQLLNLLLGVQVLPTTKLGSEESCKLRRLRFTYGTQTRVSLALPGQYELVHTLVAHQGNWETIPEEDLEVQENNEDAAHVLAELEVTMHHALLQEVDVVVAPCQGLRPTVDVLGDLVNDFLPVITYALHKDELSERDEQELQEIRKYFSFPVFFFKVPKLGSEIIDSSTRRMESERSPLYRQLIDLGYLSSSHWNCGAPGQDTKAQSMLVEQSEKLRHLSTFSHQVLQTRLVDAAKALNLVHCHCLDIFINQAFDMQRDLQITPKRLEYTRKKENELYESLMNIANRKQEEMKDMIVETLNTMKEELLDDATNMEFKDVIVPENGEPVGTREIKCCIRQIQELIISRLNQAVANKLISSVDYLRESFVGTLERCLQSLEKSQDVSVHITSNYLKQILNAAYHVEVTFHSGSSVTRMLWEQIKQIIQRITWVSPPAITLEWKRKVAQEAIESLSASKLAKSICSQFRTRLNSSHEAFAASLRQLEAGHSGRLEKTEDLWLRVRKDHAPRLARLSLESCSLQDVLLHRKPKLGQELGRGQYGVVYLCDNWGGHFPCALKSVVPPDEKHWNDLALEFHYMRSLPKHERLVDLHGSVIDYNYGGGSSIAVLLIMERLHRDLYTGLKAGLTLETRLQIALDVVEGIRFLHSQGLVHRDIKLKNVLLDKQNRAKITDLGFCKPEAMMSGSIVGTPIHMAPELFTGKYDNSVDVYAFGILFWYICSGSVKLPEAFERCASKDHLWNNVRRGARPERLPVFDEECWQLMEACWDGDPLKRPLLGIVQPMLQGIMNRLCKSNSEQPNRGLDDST
Method in brief: as §1

[6] = target: T6, kinases of the scanMAX Kinase assay panel (Homo sapiens, UniProt Q9NWZ3); conditions: IRAK4; 1 uM
T6 construct: purchased DiscoverX Co. (contract measurement) scanMAX Kinase assay panel
T6 sequence (Q9NWZ3 1-460): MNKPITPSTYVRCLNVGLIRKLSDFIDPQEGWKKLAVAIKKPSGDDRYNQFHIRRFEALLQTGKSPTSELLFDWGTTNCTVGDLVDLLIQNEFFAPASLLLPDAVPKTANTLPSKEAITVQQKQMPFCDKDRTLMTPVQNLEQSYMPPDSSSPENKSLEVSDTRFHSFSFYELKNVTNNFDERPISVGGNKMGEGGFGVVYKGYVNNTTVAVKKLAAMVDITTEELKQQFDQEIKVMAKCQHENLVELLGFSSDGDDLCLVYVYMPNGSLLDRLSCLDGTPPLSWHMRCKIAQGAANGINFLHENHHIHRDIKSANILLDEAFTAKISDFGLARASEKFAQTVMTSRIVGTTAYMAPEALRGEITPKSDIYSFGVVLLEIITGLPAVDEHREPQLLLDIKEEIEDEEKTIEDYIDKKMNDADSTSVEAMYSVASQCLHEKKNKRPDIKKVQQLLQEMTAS
Method in brief: as §1

Row | Structure (SMILES) | remaining binding at 1 µM [1] [%] | remaining binding at 1 µM [2] [%] | remaining binding at 1 µM [3] [%] | remaining binding at 1 µM [4] [%] | remaining binding at 1 µM [5] [%] | remaining binding at 1 µM [6] [%]
1 | CCNc1nc(Nc2ccc(C(=O)N3CCC(N4CCOCC4)CC3)cc2OC)nc2[nH]cc(C(F)(F)F)c12 [Example 104, (4-((4-(ethylamino)-5-(trifluoromethyl)-7H-pyrrolo[2,3-d]pyrimidine-2-yl)amino)-3-methoxyphenyl)(4-morpholinopiperidine-1-yl)methanone] | 1.7 | 90 | 2.6 | 99 | 18 | 100
2 | CNc1nc(Nc2ccc(C(=O)N3CCOCC3)cc2OC)nc2[nH]cc(C#N)c12 [Example 1, 2-((2-methoxy-4-(morpholine-4-carbonyl)phenyl)amino)-4-(methylamino)-7H-pyrrolo[2,3-d]pyrimidine-5-carbonitrile] | 17 | 80 | 5 | 94 | 10 | 92
3 | CC1(Nc2nc(Nc3cnn([C@H]4CCN(C5COC5)C[C@@H]4F)c3Cl)nc3[nH]cc(C#N)c23)CC1 [Example 52, 2-((5-chloro-1-((3S,4S)-3-fluoro-1-(oxetane-3-yl)piperidine-4-yl)-1H-pyrazole-4-yl)amino)((1-methylcyclopropyl)amino)-7H-pyrrolo[2,3-d]pyrimidine-5-carbonitrile] | 0 | 68 | 1 | 65 | 3.7 | 0.2
